PubChem BioAssay AID1963833 (Molecular Pharmacology Branch, DTP, NCI, 2024)
pIC50: −log10 of the molar value.

Tested on: 883617-216-R-J1-PDC complex spheroid viability
Experiment: Anticancer human tumor 883617-216-R-J1-PDC patient-derived bladder carcinoma cell line growth inhibition [POLQ]
Details: for pIC50: curve of first compound; for viability, T/C: stronger effect = lower value
Method: Multicellular complex tumor spheroid response to Polymerase (POL) inhibitors (novobiocin, ART-558, RP6685) in combination with a variety of drugs and investigational agents in selected tumor cell lines
The POL inhibitors (novobiocin, ART-558, and RP6685) were evaluated both individually and in combination with standard of care and investigational anticancer small molecules within a complex spheroid model of solid tumors. . Complex spheroids include a stromal component modeled by human endothelial cells (HUVEC) and fibroblasts modeled by human mesenchymal stem cells (MSCs). The concentration ranges selected for each drug and investigational agent were based upon clinically achievable concentrations if the clinical Cmax of the agent was known.
Compounds. The drugs and investigational agents: novobiocin (NSC847541), ART-558 (NSC835418), RP-6685 (NSC848927), peposertib (NSC802822), ceralasertib (NSC780249), elimusertib (NSC800525), camonsertib (NSC841442), AZD-1390 (NSC803789), olaparib (NSC753686), talazoparib (NSC767125), rucaparib (NSC756644), sotorasib (NSC818433), MRTX-1133 (NSC836407), SN-38 (NSC673596), topotecan (NSC609699), epotoside (NSC141540), doxorubicin (NSC123127), gemcitabine (NSC613327), 5-fluorouracil (NSC19893), paclitaxel (NSC125973), vemurafenib (NSC761431), MSA-2 (NSC828583), SN-011 (NSC837082), adavosertib (NSC754352), prexasertib (NSC758257), carboplatin (NSC241240) and oxaliplatin (NSC266046), were obtained from the National Cancer Institute (NCI) Developmental Therapeutics Program Chemical Repository (21). The FDA-approved anticancer drug set is available from the Developmental Therapeutics Program at https://dtp.cancer.gov/organization/dscb/obtaining/. […] The stock solutions were prepared in dimethyl sulfoxide (DMSO, Sigma-Aldrich, St. Louis, MO, cat. D2650), except for the platinum compounds which were prepared in saline (Quality Biological, Gaithersburg, MD, cat. 114-055-101), at 800-fold the tested concentration and stored at -70 degrees C prior to their use. All drugs and investigational agents were tested over a range starting from a high concentration at or near the clinical Cmax and decreasing in half-log increments. If the clinical Cmax for an agent had not been determined, the highest concentration tested was 10 microM, except for SN-38, which was tested at a high concentration of 1 microM.
Cell Culture. All cells were maintained in an incubator at 37 degrees C and 5% CO2 with 95% humidity. The PDC lines were cultured according to standard operating procedures established by the NCI PDMR (https://pdmr.cancer.gov). Table 3 of the manuscript, lists the cell lines along with the number of the three cell types plated to form the mct-spheroids and media for tumor cell growth. After thawing, all PDC lines, except 997537-175-T-J1-PDC and 415267-285-R-J2-PDC, were cultured in Matrigel-coated flasks prepared with a working solution of 1X Ham's F-12 nutrient mix, without supplementation (Thermo Fisher Scientific, cat. 11765054), 100 U/mL penicillin-streptomycin (Thermo Fisher Scientific, cat. 15140122), and 2.5% Matrigel (Corning Inc., Corning, NY, cat. 354248) for the first three passages. The two PDC lines 997537-175-T-J1-PDC and 415267-285-R-J2-PDC were cultured on uncoated flasks. The 857933-349-R-J2-PDC line was cultured in 6C/Colon 1B media containing advanced DMEM/F-12 (Thermo Fisher Scientific, cat. 12634028), 10 mM HEPES (Thermo Fisher Scientific, cat. 15630080), 1X GlutaMAX supplement (Thermo Fisher Scientific, cat. 35050061), 0.1 mg/mL primocin (InvivoGen, San Diego, CA, cat. ant-pm-2), 10% defined fetal bovine serum, heat inactivated (HyClone Laboratories Inc., Logan, UT, cat. SH30070.03HI), 50% L-WRN conditioned media (ATCC, cat. CRL-3276), 1.25 mM N-Acetyl-L-cysteine (Sigma-Aldrich, cat. A9165), 10 mM nicotinamide (Sigma-Aldrich, cat. N0636), 1X B-27 supplement (Thermo Fisher Scientific, cat. 17504044), 1X N-2 supplement (Thermo Fisher Scientific, cat. […]

[1] = second compound 0.0316 µM, first compound 0.00316 µM
[2] = second compound 0.0316 µM, first compound 0.01 µM
[3] = second compound 0.0316 µM, first compound 0.0316 µM
[4] = second compound 0.0316 µM, first compound 0.1 µM
[5] = second compound 0.0316 µM, first compound 0.316 µM
[6] = second compound 0.0316 µM, first compound 1 µM
[7] = second compound 0.1 µM, first compound 0.00316 µM
[8] = second compound 0.1 µM, first compound 0.01 µM
[9] = second compound 0.1 µM, first compound 0.0316 µM
[10] = second compound 0.1 µM, first compound 0.1 µM
[11] = second compound 0.1 µM, first compound 0.316 µM
[12] = second compound 0.1 µM, first compound 1 µM
[13] = second compound 0.316 µM, first compound 0.00316 µM
[14] = second compound 0.316 µM, first compound 0.01 µM
[15] = second compound 0.316 µM, first compound 0.0316 µM
[16] = second compound 0.316 µM, first compound 0.1 µM
[17] = second compound 0.316 µM, first compound 0.316 µM
[18] = second compound 0.316 µM, first compound 1 µM
[19] = second compound 1 µM, first compound 0.00316 µM
[20] = second compound 1 µM, first compound 0.01 µM
[21] = second compound 1 µM, first compound 0.0316 µM
[22] = second compound 1 µM, first compound 0.1 µM
[23] = second compound 1 µM, first compound 0.316 µM
[24] = second compound 1 µM, first compound 1 µM
[25] = second compound 3.16 µM, first compound 0.00316 µM
[26] = second compound 3.16 µM, first compound 0.01 µM
[27] = second compound 3.16 µM, first compound 0.0316 µM
[28] = second compound 3.16 µM, first compound 0.1 µM
[29] = second compound 3.16 µM, first compound 0.316 µM
[30] = second compound 3.16 µM, first compound 1 µM
[31] = second compound 10 µM, first compound 0.00316 µM
[32] = second compound 10 µM, first compound 0.01 µM
[33] = second compound 10 µM, first compound 0.0316 µM
[34] = second compound 10 µM, first compound 0.1 µM
[35] = second compound 10 µM, first compound 0.316 µM
[36] = second compound 10 µM, first compound 1 µM
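Note: spheroids exposed to compounds for seven days before readout.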
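Throughout, for viability, T/C: 100% = DMSO vehicle control viability.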

C=CCn1c(=O)c2cnc(Nc3ccc(N4CCN(C)CC4)cc3)nc2n1-c1cccc(C(C)(C)O)n1 + COC1C(OC(N)=O)C(O)C(Oc2ccc3c(O)c(NC(=O)c4ccc(O)c(CC=C(C)C)c4)c(=O)oc3c2C)OC1(C)C
pIC50 (second compound 0.0316 µM): 6.04 | pIC50 (second compound 0.1 µM): 6.09 | pIC50 (second compound 0.316 µM): 6.02 | pIC50 (second compound 1 µM): 6.05 | pIC50 (second compound 3.16 µM): 6.05 | pIC50 (second compound 10 µM): 6.09 | viability, T/C [1]: 113% | viability, T/C [2]: 97.9% | viability, T/C [3]: 112% | viability, T/C [4]: 94.7% | viability, T/C [5]: 84.6% | viability, T/C [6]: 47% | viability, T/C [7]: 101% | viability, T/C [8]: 91.9% | viability, T/C [9]: 98.9% | viability, T/C [10]: 120% | viability, T/C [11]: 85.9% | viability, T/C [12]: 42% | viability, T/C [13]: 121% | viability, T/C [14]: 99.8% | viability, T/C [15]: 104% | viability, T/C [16]: 107% | viability, T/C [17]: 77.8% | viability, T/C [18]: 48.6% | viability, T/C [19]: 103% | viability, T/C [20]: 95.2% | viability, T/C [21]: 105% | viability, T/C [22]: 112% | viability, T/C [23]: 92.2% | viability, T/C [24]: 45.2% | viability, T/C [25]: 106% | viability, T/C [26]: 101% | viability, T/C [27]: 98.6% | viability, T/C [28]: 104% | viability, T/C [29]: 90% | viability, T/C [30]: 44.8% | viability, T/C [31]: 104% | viability, T/C [32]: 87.1% | viability, T/C [33]: 105% | viability, T/C [34]: 91.6% | viability, T/C [35]: 84% | viability, T/C [36]: 42.8%

CCc1c2c(nc3ccc(O)cc13)-c1cc3c(c(=O)n1C2)COC(=O)[C@]3(O)CC + COC1C(OC(N)=O)C(O)C(Oc2ccc3c(O)c(NC(=O)c4ccc(O)c(CC=C(C)C)c4)c(=O)oc3c2C)OC1(C)C
pIC50 (second compound 0.0316 µM): 7.01 | pIC50 (second compound 0.1 µM): 6.98 | pIC50 (second compound 0.316 µM): 7.22 | pIC50 (second compound 1 µM): 7.11 | pIC50 (second compound 3.16 µM): 6.97 | pIC50 (second compound 10 µM): 7.00 | viability, T/C [1]: 63.7% | viability, T/C [2]: 57.6% | viability, T/C [3]: 67.5% | viability, T/C [4]: 47.6% | viability, T/C [5]: 33.5% | viability, T/C [6]: 25.2% | viability, T/C [7]: 58.6% | viability, T/C [8]: 59.3% | viability, T/C [9]: 59.9% | viability, T/C [10]: 49.7% | viability, T/C [11]: 33.6% | viability, T/C [12]: 20.7% | viability, T/C [13]: 70.1% | viability, T/C [14]: 62.3% | viability, T/C [15]: 55.1% | viability, T/C [16]: 49.1% | viability, T/C [17]: 31.6% | viability, T/C [18]: 29.7% | viability, T/C [19]: 68.7% | viability, T/C [20]: 59.2% | viability, T/C [21]: 61.4% | viability, T/C [22]: 46.9% | viability, T/C [23]: 33.6% | viability, T/C [24]: 21.1% | viability, T/C [25]: 66.8% | viability, T/C [26]: 58% | viability, T/C [27]: 60.2% | viability, T/C [28]: 51.8% | viability, T/C [29]: 35% | viability, T/C [30]: 21.1% | viability, T/C [31]: 71% | viability, T/C [32]: 56% | viability, T/C [33]: 63.3% | viability, T/C [34]: 46.2% | viability, T/C [35]: 42% | viability, T/C [36]: 21.7%
